The IC50 is the concentration needed to halve the response being measured. As a reminder, the Ki is the equilibrium dissociation constant of an inhibitor or competing ligand from its target.

The structures appear in SMILES notation. Read-outs that look alike come from different tables or passages of the source.

Consider ten molecules from PMC8471300, “A Computational Workflow for the Identification of Novel Fragments Acting as Inhibitors of the Activity of Protein Kinase CK1δ” (International Journal of Molecular Sciences, 2021).

One experiment addresses T1, CK1δ (aa 1-294) (Homo sapiens, UniProt P48730).
T1 construct: Compounds were evaluated towards CK1δ (aa 1-294, Merck Millipore); purchased Merck Millipore
T1 sequence (P48730 1-294): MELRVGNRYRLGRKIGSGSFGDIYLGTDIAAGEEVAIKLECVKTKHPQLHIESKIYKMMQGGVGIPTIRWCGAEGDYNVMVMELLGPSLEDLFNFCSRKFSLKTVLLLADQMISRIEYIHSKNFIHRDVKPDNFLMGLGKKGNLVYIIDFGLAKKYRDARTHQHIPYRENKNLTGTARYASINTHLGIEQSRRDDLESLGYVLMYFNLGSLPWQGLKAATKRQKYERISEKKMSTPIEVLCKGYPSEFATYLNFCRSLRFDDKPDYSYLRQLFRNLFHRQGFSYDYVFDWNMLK
Put plainly: CK1δ KinaseGlo luminescence enzymatic assay. The experiment is classed as biochemical. As to conditions: for remaining activity at 40 µM: ligand at 40 μM, mean of two independent experiments in duplicate, read-out: % CK1δ residual activity - fixed dose 40 μM; for IC50: mean of three independent experiments, 95% confidence limits in brackets, 4 μM ATP, 0.1% casein. On the procedure:
Fragments were tested against CK1δ using a luminescent-based assay.
Compounds were evaluated towards CK1δ (aa 1-294, Merck Millipore, Frankfurter Strasse 250, Darmstadt, 64293, Germany) with the KinaseGlo® luminescence assay (Promega Corporation, 2800 Woods Hollow Road Madison, WI 53711, USA) following procedures reported in the literature. In detail, luminescent assays were performed in white 96-well plates, using the following buffer: 50 mM HEPES (pH 7.5),1 mM EDTA, 1 mM EGTA, and 15 mM MgCl2. […] In a typical assay, 10 μL of inhibitor solution (dissolved in DMSO at 10 mM concentration and diluted in assay buffer to the desired concentration) and 10 μL (16 ng) of enzyme solution were added to each well, followed by 20 μL of assay buffer containing 0.1% casein substrate and 4 μM ATP.
After 60 min of incubation at 30 °C, the enzymatic reactions were stopped with 40 μL of KinaseGlo® reagent (Promega). The luminescence signal (relative light unit, RLU) was recorded after 10 min at 25 °C using Tecan Infinite M100. […] Two independent experiments were performed in duplicate and the corresponding residual activity of CK1δ was obtained. Data were analyzed using Excel and reported as the mean of the two experiments with standard deviation. For IC50 determination ten different inhibitor concentrations ranging from 100 to0.026 μM were used and each point was assessedin duplicate. IC50 values are the mean of three independent experiments and 95% confidence limits were also reported. Data were analyzed using GraphPad Prism software (version 8.0).

In experiment [1] the target is CK1δ. The arrangement: method as in PMID 21336281. Conditions: cited from earlier work.
Experiment [2] addresses CK1δ. The arrangement: method as in PMID 19825801. Conditions: cited from earlier work.
For a further experiment, the target named is ALK kinase. Also noted: method as in PMID 19825801. Conditions: cited from earlier work.

For `Nc1n[nH]c2cc(Cl)ccc12` [Compound 38], on CK1δ (aa 1-294), the remaining activity at 40 µM was found to be 24.4% and the IC50 stood at 20.5 µM.

Turning to `O=C(Nc1n[nH]c2ccc(-c3cn(Cc4ccccc4)nn3)cc12)c1ccccc1` [CHEMBL1999931], the inhibitory constant (Ki) on CK1δ [1] (multikinase inhibitor with 3-amino-indazole scaffold) was 316 nM.

As for `Nc1ncnc2nccc(O)c12` [Compound 59], at CK1δ (aa 1-294), the remaining activity at 40 µM was 24.7% and half-maximal inhibition (IC50) required 13.9 µM.

With `Nc1n[nH]c2cccc(F)c12` [Compound 63], at CK1δ (aa 1-294), the remaining activity at 40 µM worked out at 35.4% and the half-maximal inhibitory concentration (IC50) is 24.9 µM.

For `Nc1nsc(Nc2ccccc2)n1` [Compound 62], on CK1δ (aa 1-294), the remaining activity at 40 µM was determined as 28.1% and the half-maximal inhibitory concentration (IC50) was 18.1 µM.

With `Nc1ncnc2sc3c(c12)CCCC3` [Compound 37], on CK1δ (aa 1-294), the remaining activity at 40 µM came out at 23.8% and the half-maximal inhibitory concentration (IC50) came to 12.7 µM.

With `CSc1c[nH]c2ncnc(NCCCO)c12` [CHEMBL2000114], the Ki on CK1δ [1] (same kinome scan from Abbott Labs) is 1000 nM.

`N#Cc1c(N)nsc1N1CCOCC1` [Compound 28]: at CK1δ (aa 1-294), the remaining activity at 40 µM worked out at 37.8% and the midpoint of inhibition, the IC50, lay at 3.31 µM.

Consider `CNC(=O)c1c(F)cccc1Nc1nc(Nc2cc3c(cc2OC)CCN3C(=O)CN(C)C)nc2[nH]ccc12` [GSK1838705A], for which, at CK1δ [2], the Ki is 3.5 µM. Besides, the IC50 on ALK kinase is […].

In the case of `Cc1c(C)n(-c2cccnc2)c2ncnc(N)c12` [Compound 52], on CK1δ (aa 1-294), the remaining activity at 40 µM is 28.3% and inhibition was half-maximal at 13.5 µM (IC50).
